Test results taken from patent US4200645A, “Pyrrole derivatives” (Beecham Group Limited, priority 1977, dated 1980).
Read-outs that look alike come from different tables or passages of the source.

Assays:
[1] = tested on: phenylquinone induced writhing; assay: phenylquinone induced writhing test for analgesic activity; format: in vivo; settings: oral, mice; for ED50: Mus musculus
Excerpt: a. When tested on a conventional phenylquinone induced writhing test for analgesic activity, the compound of Example 1 and tolmetin produced the following ED50 values when administered orally to mice: […]

stomachs = assay: gastric erosion test after oral dosing; format: in vivo, rats; settings: for No. of Animals Showing Erosions: groups of 10 rats, 4 hour contact time
Protocol: b. Groups of 10 rats were starved overnight and then dosed orally with the test compound suspended in 0.7% methylcellulose. After a 4 hour contact time the animals were killed and the stomachs removed, inflated with 0.9% saline, cut open after 30 minutes and examined for erosions. The following results, expressed as the number of animals in each group showing damage, were obtained: […]

[2] = tested on: carrageenin induced oedema; assay: carrageenin induced oedema test for anti-inflammatory activity; format: in vivo; settings: Rattus norvegicus; per oral in rats; read-out: dose at which active (anti-inflammatory)
Protocol: c. When tested on a conventional carrageenin induced oedema test foranti-inflammatory activity, the compound of Example 1 was classed as active at 10 mg/kg per oral in rats (as compared to about 5 mg/kg for tolmetin).

rats = assay: toxicity observations during testing in rats; format: in vivo; settings: up to 100 mg/kg per day for 6 days
[3] = tested on: cotton pellet induced granuloma; assay: cotton pellet induced granuloma test; format: in vivo
Excerpt: (§1) When tested on a conventional cotton pellet induced granuloma test the results shown hereafter were obtained. In these tests hydrocortisone (HC) was used as a positive control.

[4] = overt toxic effects during testing (Demonstration 2); format: in vivo
Excerpt: as §1

[5] = in vivo
[6] = J. Pharmacol. Exptl. Therap. 1973, 185, 127-138; cited from earlier work

CC(=O)CCc1ccc(C(=O)c2ccc(C)cc2)n1C [Example 1, 4-(1-Methyl-5-p-toluoyl-2-pyrryl)butan-2-one]
ED50 ([1]; Test A, read-out: ED50, Test A): 6.7 mg/kg | ED50 ([1]; Test B, read-out: ED50, Test B): 5.3 mg/kg | analgesic potency relative to tolmetin ([1]; from ED50 values): about half as potent as tolmetin | No. of Animals Showing Erosions (stomachs; 30 mg/kg oral): 0 No. of Animals | No. of Animals Showing Erosions (stomachs; 90 mg/kg oral): 1 No. of Animals | No. of Animals Showing Erosions (stomachs; 270 mg/kg oral): 1 No. of Animals | minimal effective dose [2]: 10 mg/kg | drug-induced lethalities (rats): No drug-induced lethalities have been observed

CC(=O)CCc1ccc(C(=O)c2ccc(Cl)cc2)n1C [Example 3, 4-(1-Methyl-5-p-chlorobenzoyl-2-pyrryl)butan-2-one]
Inhibition (cotton pellet granuloma) ([3]; 10 mg/kg): 42% | drug-induced lethalities ([4]; during testing): no drug-induced lethalities were observed | overt toxic effects ([4]; during testing): not found to exhibit any overt toxic effects | body weight gain ([4]; in vivo): no reduction in body weight gain was observed | thymus weight ([4]; in vivo): no change in thymus weight was observed

CC(=O)CCc1ccc(C(=O)c2cccs2)n1C [Example 4, 4-(1-Methyl-5-thien-2'-oyl-2-pyrryl)butan-2-one]
Inhibition (cotton pellet granuloma) ([3]; 10 mg/kg): 24% | drug-induced lethalities ([4]; during testing): no drug-induced lethalities were observed | body weight gain ([4]; in vivo): no reduction in body weight gain was observed | overt toxic effects ([4]; in vivo): not found to exhibit any overt toxic effects | thymus weight ([4]; in vivo): no change in thymus weight was observed

CC(=O)OC(C)CCc1ccc(C(=O)c2ccc(C)cc2)n1C (centres unmarked) [Example 6, 2-Acetoxy-4-(1-methyl-5-p-toluoyl-2-pyrryl)butane]
Inhibition (cotton pellet granuloma) ([3]; 50 mg/kg): 34% | drug-induced lethalities ([4]; during testing): no drug-induced lethalities were observed | overt toxic effects ([4]; during testing): not found to exhibit any overt toxic effects | body weight gain ([4]; in vivo): no reduction in body weight gain was observed | thymus weight ([4]; in vivo): no change in thymus weight was observed

Cc1ccc(C(=O)c2ccc(CCC3(C)OCCO3)n2C)cc1 [Example 7, 2-Methyl-2-[2-(1-methyl-5-p-toluoyl-2-pyrryl)ethyl]-1,3-dioxolane]
Inhibition (cotton pellet granuloma) ([3]; 50 mg/kg): 43% | drug-induced lethalities ([4]; during testing): no drug-induced lethalities were observed | overt toxic effects ([4]; during testing): not found to exhibit any overt toxic effects | body weight gain ([4]; in vivo): no reduction in body weight gain was observed | thymus weight ([4]; in vivo): no change in thymus weight was observed

C[C@]12CCC(=O)C=C1CC[C@@H]1[C@@H]2[C@@H](O)C[C@@]2(C)[C@H]1CC[C@]2(O)C(=O)CO [HC, hydrocortisone, reference compound]
Inhibition (cotton pellet granuloma) ([3]; 10 mg/kg): 43%

Cc1ccc(C(=O)c2ccc(CC(=O)O)n2C)cc1 [Tolmetin]
ED50 ([1]; Test A, read-out: ED50, Test A): 4.3 mg/kg | ED50 ([1]; Test B, read-out: ED50, Test B): 2.3 mg/kg | No. of Animals Showing Erosions (stomachs; 10 mg/kg oral): 2 No. of Animals | No. of Animals Showing Erosions (stomachs; 30 mg/kg oral): 6 No. of Animals | No. of Animals Showing Erosions (stomachs; 90 mg/kg oral): 10 No. of Animals | gastric irritancy relative to the compound of Example 1 (stomachs; oral, rats, "probably at least"): at least 10 times | minimal effective dose [2]: ~5 mg/kg | gastric irritancy [5]: causes gastric irritancy in test animals at doses not greatly exceeding the therapeutic dose | anti-inflammatory activity [6]: possess anti-inflammatory activity
